Source: patent US8546451B2 (priority 2005, dated 2013)

What was measured:
[1] = target: ER-α ligand binding domain (LBD) (Homo sapiens (Human), UniProt P03372); test: ER-α competitive radioligand binding assay with [3H]E2; conditions: read-out: ER-α Ki
Protocol: (§1) Following incubation, plates were harvested with GF/B filters on the Unifilter-96 Harvester (PerkinElmer) and washed three times with ice-cold buffer B (50 mM Tris, pH 7.2). The filter plates were dried at room temperature, then 35 μl Microscint-O cocktail was added to each well and the filter plates were sealed with TopSeal-A. Radioactivity was counted in a TopCount® NXT Microplate Scintillation Counter using the settings for ^3H in Microscint cocktail (PerkinElmer).
(§2) E2 (determined by incubating with 10^−6 M unlabeled E2) and expressing it as a percentage of the specific binding in the absence of test compound.

[2] = target: ER-β ligand binding domain (LBD) (Homo sapiens (Human), UniProt Q92731); test: ER-β competitive radioligand binding assay with [3H]E2; conditions: read-out: ER-β Ki
Protocol: as §1, §2

rat ER-β = rat ER-β (Rattus norvegicus (Rat), UniProt Q62986); test: ER-β transactivation assay (ERE-LUC) in HEK-293 cells; format: cell-based
Protocol: Transactivation assays in agonist and antagonist modes were performed to identify whether the compound is an agonist, antagonist or a partial.
Sequencing was performed to determine the absence of any mutations. HEK-293 cells were plated at 100,000 cells per well of a 24 well plate in Dulbecco's Minimal Essential Media (DMEM) +5% charcoal-stripped fetal bovine serum (csFBS). […] Luciferase assays were performed 48 hrs after transfection.

[3] = target: T1, glucocorticoid receptor (GR) (Rattus norvegicus (Rat), UniProt P06536); test: Cross-reactivity transcriptional activation assay, GR; format: cell-based; conditions: agonist and antagonist modes
Excerpt: (§3) Compound IV was screened for cross-reactivity against rat isoforms of glucocorticoid receptor (GR), mineralocorticoids receptor (MR), progesterone receptor (PR), androgen receptor (AR) and human isoforms of farnesoid X receptor (FXR), liver X receptor (LXR), peroxisome proliferator-activated receptors (PPAR-α and PPAR-γ), and retinoid X receptor (RXR-α) in both agonist and antagonist modes in transcriptional activation assays.

[4] = target: progesterone receptor (PR) (Rattus norvegicus (Rat), UniProt Q63449); test: Cross-reactivity transcriptional activation assay, PR; format: cell-based; conditions: agonist and antagonist modes
Excerpt: as §3

androgen receptor (AR) = androgen receptor (AR) (Rattus norvegicus (Rat), UniProt P15207); test: Cross-reactivity transcriptional activation assay, AR; format: cell-based; conditions: agonist and antagonist modes
Excerpt: as §3

PPAR-α = PPAR-α (Homo sapiens (Human), UniProt Q07869); test: Cross-reactivity transcriptional activation assay, PPAR-α; format: cell-based; conditions: agonist and antagonist modes
Excerpt: as §3

PPAR-γ = PPAR-γ (Homo sapiens (Human), UniProt P37231); test: Cross-reactivity transcriptional activation assay, PPAR-γ; format: cell-based; conditions: agonist and antagonist modes
Excerpt: as §3

[5] = target: T1, glucocorticoid receptor (GR); test: DES versus Compound IV, GR crossreaction (FIG. 12A); format: cell-based
[6] = system: estrogen related receptor (ERR-α, ERR-β and ERR-γ); test: DES versus Compound IV, ERR transactivation (FIG. 12C); format: cell-based
[7] = system: serum testosterone and total androgens; test: Testosterone suppression in Cynomolgus monkeys; format: in vivo; conditions: 30 mg/kg oral daily
Human 17β-HSD5 = Human 17β-HSD5 (Homo sapiens (Human), UniProt P42330); test: 17β-HSD5 enzyme activity assay; format: biochemical; conditions: 14C androstenedione to testosterone, TLC (FIG. 3)
intact and ORX rats = test: Prostate size, Compound IV versus DES in rats; format: in vivo
[8] = Oral pharmacokinetics in dogs; format: in vivo
Protocol: (§4) Formulations using polyethylene glycol 300 (PEG300) generally produced higher exposures than microemulsions prepared in Tween 80 diluted in deionized water. […] Importantly, in dogs the exposure in the male 30 mg/kg PEG300 oral dose group exceeded the exposure necessary to produce the maximal effect on prostate reduction in the rat model of LH suppression.

[9] = Preliminary oral pharmacokinetics in monkeys; format: in vivo
Protocol: as §4

CYP1A2 = test: CYP450 induction in vitro, CYP1A2; format: in vitro ADME
CYP2B6 = test: CYP450 induction in vitro, CYP2B6; format: in vitro ADME
[10] = system: isolated canine Purkinje fibers; test: Action potential duration in isolated canine Purkinje fibers; conditions: 10 and 100 μM
rats [11] = test: Gastrointestinal effects in rats; format: in vivo; conditions: oral
[12] = system: human peripheral blood lymphocytes; test: Chromosomal aberrations in human peripheral blood lymphocytes in vitro; format: cell-based; conditions: concentrations up to 200 μM
rats [13] = test: Single and repeated oral administration toxicity in rats; format: in vivo
Excerpt: Compound IV was well-tolerated by rats and dogs after single and repeated oral administration (up to 28 days).

human platelets = test: In vitro human platelet aggregation assay (thrombin-induced); conditions: platelet rich plasma preincubated 30 seconds; thrombin 0.3 units

Chain of rat ER-β (Q62986 whole entry): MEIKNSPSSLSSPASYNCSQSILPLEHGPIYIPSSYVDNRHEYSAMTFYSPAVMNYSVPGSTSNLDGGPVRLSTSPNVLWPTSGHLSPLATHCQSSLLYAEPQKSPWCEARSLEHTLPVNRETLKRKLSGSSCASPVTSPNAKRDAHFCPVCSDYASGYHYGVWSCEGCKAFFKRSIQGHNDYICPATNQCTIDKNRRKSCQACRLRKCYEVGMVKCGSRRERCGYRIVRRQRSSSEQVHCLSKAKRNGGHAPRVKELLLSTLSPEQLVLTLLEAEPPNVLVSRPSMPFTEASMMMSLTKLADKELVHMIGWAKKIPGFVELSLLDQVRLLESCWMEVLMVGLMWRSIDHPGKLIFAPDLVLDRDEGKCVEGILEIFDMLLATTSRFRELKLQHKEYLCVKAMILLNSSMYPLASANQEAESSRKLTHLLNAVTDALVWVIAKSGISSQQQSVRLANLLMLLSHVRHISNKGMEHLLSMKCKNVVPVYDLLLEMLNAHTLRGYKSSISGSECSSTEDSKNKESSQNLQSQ
T1 sequence (P06536 whole entry, canonical isoform): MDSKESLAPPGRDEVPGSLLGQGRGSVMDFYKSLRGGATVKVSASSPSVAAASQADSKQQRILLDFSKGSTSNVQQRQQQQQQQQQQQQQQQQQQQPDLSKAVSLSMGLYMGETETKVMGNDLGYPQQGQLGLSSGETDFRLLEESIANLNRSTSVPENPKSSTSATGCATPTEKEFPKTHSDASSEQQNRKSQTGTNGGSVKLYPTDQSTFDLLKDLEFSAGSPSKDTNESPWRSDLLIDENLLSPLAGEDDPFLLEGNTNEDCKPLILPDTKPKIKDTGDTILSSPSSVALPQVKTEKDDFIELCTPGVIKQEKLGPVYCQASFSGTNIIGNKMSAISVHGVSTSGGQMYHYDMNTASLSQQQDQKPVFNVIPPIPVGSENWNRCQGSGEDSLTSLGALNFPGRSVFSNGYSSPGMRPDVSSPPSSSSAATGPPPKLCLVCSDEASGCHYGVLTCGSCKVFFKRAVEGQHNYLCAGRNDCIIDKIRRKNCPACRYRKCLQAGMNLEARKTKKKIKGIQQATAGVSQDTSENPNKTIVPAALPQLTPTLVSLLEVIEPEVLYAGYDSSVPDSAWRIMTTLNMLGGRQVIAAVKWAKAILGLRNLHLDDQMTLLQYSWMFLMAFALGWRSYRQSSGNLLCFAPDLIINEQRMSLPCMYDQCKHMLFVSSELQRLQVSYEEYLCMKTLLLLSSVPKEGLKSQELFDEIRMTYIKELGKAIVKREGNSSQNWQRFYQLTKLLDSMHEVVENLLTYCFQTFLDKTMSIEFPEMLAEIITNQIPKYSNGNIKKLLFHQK
Chain of PPAR-α (Q07869 whole entry): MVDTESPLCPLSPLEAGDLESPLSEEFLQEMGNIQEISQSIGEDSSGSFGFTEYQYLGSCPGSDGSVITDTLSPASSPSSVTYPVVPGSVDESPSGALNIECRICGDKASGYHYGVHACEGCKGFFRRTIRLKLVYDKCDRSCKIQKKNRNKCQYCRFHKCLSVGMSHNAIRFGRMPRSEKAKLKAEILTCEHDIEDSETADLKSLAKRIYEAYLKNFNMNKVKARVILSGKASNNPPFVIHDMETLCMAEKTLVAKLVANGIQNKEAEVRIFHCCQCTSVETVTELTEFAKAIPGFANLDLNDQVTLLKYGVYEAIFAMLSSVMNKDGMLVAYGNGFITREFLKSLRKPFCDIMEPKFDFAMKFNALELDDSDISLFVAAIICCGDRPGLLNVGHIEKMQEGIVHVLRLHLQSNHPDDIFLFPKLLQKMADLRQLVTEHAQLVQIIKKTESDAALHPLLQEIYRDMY
Chain of progesterone receptor (PR) (Q63449 whole entry): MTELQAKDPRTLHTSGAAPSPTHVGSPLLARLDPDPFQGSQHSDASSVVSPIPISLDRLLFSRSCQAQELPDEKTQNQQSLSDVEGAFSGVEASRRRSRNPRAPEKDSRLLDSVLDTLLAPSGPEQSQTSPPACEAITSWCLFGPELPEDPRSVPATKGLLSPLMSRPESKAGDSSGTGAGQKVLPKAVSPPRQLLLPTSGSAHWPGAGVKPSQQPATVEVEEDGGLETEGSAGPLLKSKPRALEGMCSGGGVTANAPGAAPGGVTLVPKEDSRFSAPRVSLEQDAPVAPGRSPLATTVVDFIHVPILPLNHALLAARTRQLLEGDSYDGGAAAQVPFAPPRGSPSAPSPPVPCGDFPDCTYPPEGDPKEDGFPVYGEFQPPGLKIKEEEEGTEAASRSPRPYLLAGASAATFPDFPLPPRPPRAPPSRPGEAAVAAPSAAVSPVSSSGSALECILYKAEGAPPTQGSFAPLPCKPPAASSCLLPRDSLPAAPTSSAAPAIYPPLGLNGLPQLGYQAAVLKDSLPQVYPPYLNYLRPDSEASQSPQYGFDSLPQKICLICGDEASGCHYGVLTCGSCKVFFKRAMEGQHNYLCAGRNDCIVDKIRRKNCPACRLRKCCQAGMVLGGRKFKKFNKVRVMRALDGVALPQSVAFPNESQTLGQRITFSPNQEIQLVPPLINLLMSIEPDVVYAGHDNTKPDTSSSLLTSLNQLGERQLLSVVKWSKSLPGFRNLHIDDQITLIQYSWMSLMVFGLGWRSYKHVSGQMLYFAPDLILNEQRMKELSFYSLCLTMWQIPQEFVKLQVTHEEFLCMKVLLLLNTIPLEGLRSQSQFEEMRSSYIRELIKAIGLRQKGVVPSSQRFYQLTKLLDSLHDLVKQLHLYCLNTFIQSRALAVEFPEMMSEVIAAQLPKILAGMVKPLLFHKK
Chain of PPAR-γ (P37231 whole entry): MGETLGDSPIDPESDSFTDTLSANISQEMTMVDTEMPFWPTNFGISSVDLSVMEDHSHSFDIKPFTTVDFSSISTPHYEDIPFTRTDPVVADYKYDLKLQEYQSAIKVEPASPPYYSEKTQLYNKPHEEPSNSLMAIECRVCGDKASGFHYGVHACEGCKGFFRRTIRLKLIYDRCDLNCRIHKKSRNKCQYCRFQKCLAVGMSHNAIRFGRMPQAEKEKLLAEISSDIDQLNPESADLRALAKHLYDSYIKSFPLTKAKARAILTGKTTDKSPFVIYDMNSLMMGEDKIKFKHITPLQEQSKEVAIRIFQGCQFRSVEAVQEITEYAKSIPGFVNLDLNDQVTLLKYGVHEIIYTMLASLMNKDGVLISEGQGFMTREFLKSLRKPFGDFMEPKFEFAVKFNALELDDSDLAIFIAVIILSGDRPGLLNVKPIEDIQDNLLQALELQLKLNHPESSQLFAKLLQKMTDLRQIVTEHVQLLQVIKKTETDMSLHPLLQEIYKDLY
Chain of Human 17β-HSD5 (P42330 whole entry): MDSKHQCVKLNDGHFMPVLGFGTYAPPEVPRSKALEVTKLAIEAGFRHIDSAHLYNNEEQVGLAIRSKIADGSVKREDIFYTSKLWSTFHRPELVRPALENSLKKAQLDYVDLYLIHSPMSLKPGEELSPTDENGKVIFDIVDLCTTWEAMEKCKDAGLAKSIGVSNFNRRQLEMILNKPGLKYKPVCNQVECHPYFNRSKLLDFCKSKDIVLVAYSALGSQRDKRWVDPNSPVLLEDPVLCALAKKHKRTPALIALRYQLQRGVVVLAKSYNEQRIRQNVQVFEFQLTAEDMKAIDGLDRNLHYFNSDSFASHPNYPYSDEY
Chain of androgen receptor (AR) (P15207 whole entry S389L): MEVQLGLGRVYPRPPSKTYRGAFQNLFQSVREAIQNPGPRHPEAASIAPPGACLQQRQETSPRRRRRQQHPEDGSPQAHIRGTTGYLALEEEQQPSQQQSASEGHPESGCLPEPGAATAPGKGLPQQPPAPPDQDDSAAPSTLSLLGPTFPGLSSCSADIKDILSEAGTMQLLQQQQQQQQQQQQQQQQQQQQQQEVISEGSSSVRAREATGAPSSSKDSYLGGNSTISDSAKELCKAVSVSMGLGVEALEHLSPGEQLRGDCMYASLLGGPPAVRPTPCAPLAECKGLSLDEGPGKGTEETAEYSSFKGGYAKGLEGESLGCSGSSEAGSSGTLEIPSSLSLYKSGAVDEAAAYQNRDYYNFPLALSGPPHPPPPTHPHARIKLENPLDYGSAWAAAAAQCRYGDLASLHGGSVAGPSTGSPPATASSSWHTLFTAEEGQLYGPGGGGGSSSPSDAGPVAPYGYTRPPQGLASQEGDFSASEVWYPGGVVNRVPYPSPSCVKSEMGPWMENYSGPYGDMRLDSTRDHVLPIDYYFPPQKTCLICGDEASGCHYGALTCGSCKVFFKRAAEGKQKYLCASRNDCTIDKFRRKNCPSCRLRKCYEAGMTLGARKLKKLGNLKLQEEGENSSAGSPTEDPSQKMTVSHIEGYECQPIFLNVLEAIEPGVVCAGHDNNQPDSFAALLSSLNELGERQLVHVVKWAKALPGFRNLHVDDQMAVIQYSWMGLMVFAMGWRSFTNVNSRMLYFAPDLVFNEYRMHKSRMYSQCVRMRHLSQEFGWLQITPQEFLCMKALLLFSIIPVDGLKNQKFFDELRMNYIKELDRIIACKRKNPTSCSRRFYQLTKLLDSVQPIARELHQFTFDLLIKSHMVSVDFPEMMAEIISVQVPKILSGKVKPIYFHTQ
Chain of ER-α ligand binding domain (LBD) (P03372 whole entry, looked up, species assumed, the tested form may be a part): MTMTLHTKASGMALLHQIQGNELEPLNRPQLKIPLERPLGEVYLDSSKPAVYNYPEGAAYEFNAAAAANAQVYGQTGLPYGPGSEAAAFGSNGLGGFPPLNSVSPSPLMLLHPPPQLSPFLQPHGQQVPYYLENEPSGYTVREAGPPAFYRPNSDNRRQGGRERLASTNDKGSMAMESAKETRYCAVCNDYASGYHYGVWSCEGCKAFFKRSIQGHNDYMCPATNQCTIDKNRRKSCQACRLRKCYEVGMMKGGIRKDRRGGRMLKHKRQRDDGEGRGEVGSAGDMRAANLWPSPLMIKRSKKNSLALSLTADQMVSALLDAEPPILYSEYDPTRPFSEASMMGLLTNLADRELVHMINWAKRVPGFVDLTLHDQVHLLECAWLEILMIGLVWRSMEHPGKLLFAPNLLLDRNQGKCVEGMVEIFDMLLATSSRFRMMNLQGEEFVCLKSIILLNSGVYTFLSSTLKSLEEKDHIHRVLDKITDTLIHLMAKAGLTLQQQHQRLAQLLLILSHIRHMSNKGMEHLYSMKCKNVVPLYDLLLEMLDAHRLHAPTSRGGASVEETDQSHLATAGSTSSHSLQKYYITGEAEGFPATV

## O=C(c1ccc(O)c(F)c1)N(c1ccc(O)cc1)c1ccc(F)cc1 [Compound IV, 3-fluoro-N-(4-fluorophenyl)-4-hydroxy-N-(4-hydroxyphenyl)benzamide]
[1]
  Ki: 21.7 ± 1.7 nM
[2]
  Ki: 15.2 ± 4.1 nM
Rat ER-β
  ERβ activity in transient transfection assays: agonist
Rat ER-β; estradiol 1 nM, concentrations up to 10 μM
  antagonist effects on estradiol-stimulated transcriptional activation: no antagonist effects were observed
[3]
  agonist or antagonist activity: did not display any agonist or antagonist activity
[4]
  agonist or antagonist activity: did not display any agonist or antagonist activity
Androgen receptor (AR)
  agonist or antagonist activity: did not display any agonist or antagonist activity
PPAR-α
  agonist or antagonist activity: did not display any agonist or antagonist activity
PPAR-γ
  agonist or antagonist activity: did not display any agonist or antagonist activity
[5]
  crossreaction with GR: did not
[6]
  effect on ERR transactivation: failed to crossreact
[7]; Animal 1, Day 2
  Testosterone Percent reduction from baseline: 16%
  Testosterone Serum level: 937 pg/mL
  Total Androgens Percent reduction from baseline: 37%
  Total Androgens Serum level: 1178 pg/mL
[7]; Animal 1, Day 3
  Testosterone Percent reduction from baseline: 30%
  Testosterone Serum level: 784 pg/mL
  Total Androgens Percent reduction from baseline: 42%
  Total Androgens Serum level: 1078 pg/mL
[7]; Animal 1, Day 4
  Testosterone Percent reduction from baseline: 51%
  Testosterone Serum level: 552 pg/mL
  Total Androgens Percent reduction from baseline: 47%
  Total Androgens Serum level: 988 pg/mL
[7]; Animal 1, Day 5
  Testosterone Percent reduction from baseline: 64%
  Testosterone Serum level: 403 pg/mL
  Total Androgens Percent reduction from baseline: 48%
  Total Androgens Serum level: 966 pg/mL
[7]; Animal 1, Day 6
  Testosterone Percent reduction from baseline: 58%
  Testosterone Serum level: 474 pg/mL
  Total Androgens Percent reduction from baseline: 56%
  Total Androgens Serum level: 819 pg/mL
[7]; Animal 3, Day 2
  Testosterone Percent reduction from baseline: 22%
  Testosterone Serum level: 479 pg/mL
  Total Androgens Percent reduction from baseline: 48%
  Total Androgens Serum level: 847 pg/mL
[7]; Animal 3, Day 3
  Testosterone Percent reduction from baseline: 29%
  Testosterone Serum level: 437 pg/mL
  Total Androgens Percent reduction from baseline: 52%
  Total Androgens Serum level: 786 pg/mL
[7]; Animal 3, Day 4
  Testosterone Percent reduction from baseline: 33%
  Testosterone Serum level: 415 pg/mL
  Total Androgens Percent reduction from baseline: 44%
  Total Androgens Serum level: 924 pg/mL
[7]; Animal 3, Day 5
  Testosterone Percent reduction from baseline: 55%
  Testosterone Serum level: 276 pg/mL
  Total Androgens Percent reduction from baseline: 60%
  Total Androgens Serum level: 664 pg/mL
[7]; Animal 3, Day 6
  Testosterone Percent reduction from baseline: 64%
  Testosterone Serum level: 221 pg/mL
  Total Androgens Percent reduction from baseline: 56%
  Total Androgens Serum level: 726 pg/mL
Human 17β-HSD5
  effect on 17β-HSD5 enzyme activity: partial inhibitory effect
Intact and ORX rats; ORX rats (FIG. 11B)
  prostate size of ORX rats: moderate increase
Intact and ORX rats; rats (FIG. 11A), compared with DES
  reduction of prostate size: as effective as DES
[8]
  absorption following oral dosing: rapidly absorbed
[8]; second peak in the terminal phase of plasma concentration-time profiles
  enterohepatic recirculation: undergoes enterohepatic recirculation
[9]
  absorption following oral dosing: rapidly absorbed
[9]; preliminary
  oral bioavailability: approximates or exceeds that in dogs
CYP1A2
  induction of CYP1A2: does not induce
CYP2B6
  induction of CYP2B6: does not induce
[10]
  APD50: decreased
  APD90: decreased
Rats [11]; 30 mg/kg
  gastrointestinal motility and gastric acidity: significant increase
Rats [11]; 30 to 300 mg/kg
  peristalsis: significant increase
Mutagenicity
  mutagenicity: not mutagenic
[12]
  structural or numeric chromosomal aberrations: did not induce structural or numeric chromosomal aberrations
Rats [13]; single and repeated oral administration (up to 28 days)
  tolerability: well-tolerated
Rats [13]; up to 28 days oral
  pathologic changes in kidney, liver, heart and other non-target-related organs: no pathologic changes observed
Human platelets
  effect on thrombin-induced platelet aggregation: decreased aggregation
